From patent publication US10656159B2, “Immunoassays of s-adenosylmethionine and methylation index in personalized medicine and health evaluation” (HUNAN SKYWORLD BIOTECHNOLOGIES CO, priority 2013, dated 2020)
“And” between values parts separate entries of the source, which are not always exact repeats. Equal entries are not always repeated. “Also recorded” adds a separate entry of the source.

What was measured:
[1] = system: nucleolar 2-O-methyltransferase; conditions: cited from earlier work
[2] = Thermal stability of SAM and SAH in human plasma; assay type: in vitro ADME
Experimental: The stability of SAM and SAH at different temperatures, as well as their stability in acid and base environment were tested. The 310 human plasma samples were placed at room temperature for 2 hours. […] The increased SAH was due to de-methylation of SAM in ex vivi situation within a few hours of blood withdrawal.
Results from stability study for different temperature conditions, i.e. 4° C., 15° C. (room temperature), 37° C. and 56° C., were obtained mainly on SAM and partially on SAH measurements. Plasma from 4 individual samples S3, S4, S5 and S6 were used in 4° C., 15° C. and 37° C. experiments.
However, when samples were placed at room temperature (˜15° C.) and 37° C., SAM was degraded rapidly especially at 37° C., SAM degradation rate reached a maximum at about 4-6 hours under 37° C. […] At about 6 hours after blood withdrawal, SAM level was reduced whereas SAH level was increased. The values of SAH were recorded as >1000 nM from 6 hours to 3 days, thus SAH leaks were not shown. The level of SAH was maintained at a high level for about 3 days before it started to drop. SAM level went down continuously. […] It cannot be ruled out that inhibition of SAH converting to other metabolites or degradation also existed causing it to stay high for quite some time. It meant to show the dynamics of SAM and SAH for this particular sample. Difference among samples exists. Samples S1, S2, S3 and S4 were used in 56° C. experiments. The results are shown in FIG. 19F-G. SAM was quickly undetectable in 10 minutes at 56° C., whereas SAH was dramatically degraded in 10 minutes and fully undetectable after about 4 hours at 56° C.

[3] = Dialysis of plasma: free and non-free SAM and SAH; assay type: in vitro ADME, human; conditions: for Amount left after dialysis: 37° C., 24 hour; for Non-free form left within the dialysis bag: dialysis 15° C., 24 hours, 20 mM phosphate buffer pH 7.4, bag MW 14,000
Experimental: To distinguish whether there are conjugated form of SAM and SAH in human plasma, we used dialysis bags to dialyze plasma samples at different temperature for 24 hours with at least two changes of dialyzing buffer (20 mM PB, pH7.4), then measured the SAM and SAH levels before and after dialysis.
Notice that for those SAH data which were greater than or equal to 1000 nM, only 1000 nM was used in the figure. Therefore, it is obvious that the immunoassays used in this invention can bind free SAM and SAH from human plasma. The differences of SAM or SAH as measured before and after dialysis (20 mM phosphate buffer, pH 7.4) for each sample represented the free SAM or SAH molecules that escaped from the dialysis bag (MW 14,000, Biosharp, USA) into the dialysis buffer, therefore they could not be detected from the sample collected from dialysis bag.
FIGS. 20A and 20B also show the percentages of SAM and SAH that were left within the dialysis bag after dialysis at 15° C. for 24 hours, which represented the amount of non-free SAM and SAH respectively.

[4] = cELISA sensitivity / SAH standard curve; assay type: binding; conditions: HRP-anti-301-1 1:1000, 0.5 μg/ml BSA-SAH coat
Experimental: The cELISA result from Table 1C with obtained from 0.5 μg/ml BSA-SAH coated micro-titer plate, HRP-anti-301-1 at dilution of 1:1000 in PBS incubation system. Different amounts of coating antigen, antibody, and incubating buffer will give slightly different minimum detection limits.

[5] = Stability of SAM and SAH in plasma at different pH; assay type: in vitro ADME, human; conditions: for Level at 1 day time point: maximum detection limit 1000 nM; for Effect of pH on degradation: plasma, 15° C., pH 5.5-6.0, 7.0-7.5, 8.0-8.5
Experimental: The stability of SAM and SAH was also tested in acidic and basic conditions at 15° C. Normal mixed plasma sample (S8) (with pH 7.84), samples S1, S2, S3, S4 (pH 7.0-7.5) were used in the experiments. 10 μl 5M HCl was added to 1260 μl plasma to adjust its pH to 5.5-6.0. In another set of samples, 2 μl 5M NaOH was added to 1260 μl plasma to adjust its pH to 8.0-8.5. Before using these acidic or basic samples to conduct the immunoassay, 1.1 μl 5M NaOH was added to 180 μl acidic samples; 0.376 μl 5M HCl was added to 180 μl basic samples to make them neutral. Meanwhile, standards were also added the same amount of acid and base as the samples.
This observation was consistent with a prior publication regarding pH stability of SAM (Parks, L W, et al. jbc.org Aug. 23, 1957). […] However basic environment has a stronger impact than acidic environment. The SAH data at 1 day time point, the SAH levels for pH 7.0-7.5 and pH 5.5-6.0 curves were measured to be greater than 1000 nM. The experiment has maximum detection limit as 1000 nM, only 1000 nM points were plotted, therefore the spikes at 1 day time point could not been see for pH 7.0-7.5 and pH 5.5-6.0 curves. This figure is meant to show the dynamics of SAH level for this particular sample. Difference among samples exists.

[6] = oral, alcoholic liver cirrhosis, versus placebo; cited from earlier work
[7] = 310 human plasma samples, room temperature 2 hours versus 4° C.

C[S+](CC[C@H](N)C(=O)[O-])C[C@H]1O[C@@H](n2cnc3c(N)ncnc32)[C@H](O)[C@@H]1O (stereo partly drawn) [(S, S)-SAM-e]
Binding tightness relative to (R, S)-SAM-e [1]: 10 fold

Nc1ncnc2c1ncn2[C@@H]1O[C@H](CSCC[C@H](N)C(=O)O)[C@@H](O)[C@H]1O [SAH, S-Adenosylhomocysteine]
Increase of level [2, 7]: 21.05%±83.31%
Time level was maintained at a high level before it started to drop ([2]; plasma, 15° C.): about 3 days
Time to fully undetectable ([2]; plasma, 56° C.): about 4 hours
Amount left after dialysis [3]: trivial or no SAM and SAH left
Non-free form left within the dialysis bag [3]: around 30%
OD450 ([4]; SAH 3.906 nM): 0.7722 and 0.9144 and 0.7786
OD450 Mean ([4]; SAH 3.906 nM): 0.8217
OD450 ([4]; SAH 7.8125 nM): 0.7602 and 0.8113 and 0.7708
OD450 Mean ([4]; SAH 7.8125 nM): 0.7808
OD450 ([4]; SAH 15.625 nM): 0.8045 and 0.8273 and 0.7975
OD450 Mean ([4]; SAH 15.625 nM): 0.8098
OD450 ([4]; SAH 31.25 nM): 0.7285 and 0.8199 and 0.7545
OD450 Mean ([4]; SAH 31.25 nM): 0.7676
OD450 ([4]; SAH 62.5 nM): 0.6055 and 0.7115 and 0.6444
OD450 Mean ([4]; SAH 62.5 nM): 0.6538
OD450 ([4]; SAH 125 nM): 0.5421 and 0.6358 and 0.5372
OD450 Mean ([4]; SAH 125 nM): 0.5717
OD450 ([4]; SAH 250 nM): 0.4116 and 0.4426 and 0.442
OD450 Mean ([4]; SAH 250 nM): 0.4321
Level at 1 day time point ([5]; plasma pH 5.5-6.0, 15° C.): greater than 1000 nM
Level at 1 day time point ([5]; plasma pH 7.0-7.5, 15° C.): greater than 1000 nM
Effect of pH on degradation [5]: both acidic and basic environment speeded up plasma SAH degradation; also recorded: Both acid and base increased the speed SAH was degraded

C[S+](CC[C@H](N)C(=O)O)C[C@H]1O[C@@H](n2cnc3c(N)ncnc32)[C@H](O)[C@@H]1O (some centres unmarked) [SAM, S-Adenosylmethionine]
Reduction of level [2, 7]: 33.81%±19.43%
Stability ([2]; plasma, 37° C.): reduced quickly in all samples
Time at which degradation rate reached a maximum ([2]; plasma, 37° C.): 4 to 6 h
Stability ([2]; plasma, 56° C.): reduced even faster than at 37 °C
Time to undetectable ([2]; plasma, 56° C.): 10 min
Amount left after dialysis [3]: trivial or no SAM and SAH left
Non-free form left within the dialysis bag [3]: 11-25%
Effect of pH on degradation [5]: degradation rate increased with pH values; also recorded: Low pH (acidic environment) helped prevent SAM from quick degradation
Overall mortality and/or progression to liver transplant [6]: 12%
